In article PMC3568244 (Molecular and cellular endocrinology, 2012):
Like-named read-outs stand apart in the source and are kept apart here.

What was measured:
Experiment in all cases: spectral binding titration
CYP11A1 [1] = target: T1, CYP11A1 (Bos taurus, UniProt P00189)
T1 sequence (P00189 40-520): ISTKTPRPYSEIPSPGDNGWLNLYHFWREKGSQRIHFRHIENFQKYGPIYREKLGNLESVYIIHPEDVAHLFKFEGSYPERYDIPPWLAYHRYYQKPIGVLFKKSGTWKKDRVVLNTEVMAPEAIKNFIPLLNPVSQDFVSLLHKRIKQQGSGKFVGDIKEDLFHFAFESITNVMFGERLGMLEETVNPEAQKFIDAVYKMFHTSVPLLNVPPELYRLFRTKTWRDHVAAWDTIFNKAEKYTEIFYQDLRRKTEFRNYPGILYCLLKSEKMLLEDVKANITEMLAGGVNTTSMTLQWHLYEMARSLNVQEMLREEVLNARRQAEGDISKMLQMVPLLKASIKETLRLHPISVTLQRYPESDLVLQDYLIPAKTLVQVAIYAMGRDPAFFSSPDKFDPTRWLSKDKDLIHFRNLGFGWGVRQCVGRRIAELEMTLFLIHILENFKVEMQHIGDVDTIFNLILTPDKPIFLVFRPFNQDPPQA

CYP11A1 [2] = target: T1, CYP11A1; remark: listed apart in the source
CYP11A1 [3] = target: T1, CYP11A1; remark: listed apart in the source

With CC(=O)N1CCN(c2ccc(OC[C@H]3CO[C@@](Cn4ccnc4)(c4ccc(Cl)cc4Cl)O3)cc2)CC1 (racemic) [Ketoconazole] the Kd (CYP11A1 [1]) was 1500 nM.
With NC(=NCc1ccc(Cl)cc1)SCCCc1cnc[nH]1 [Clobenpropit] the Kd (CYP11A1 [2]) was 18000 nM.
With Cc1cccc([C@H](C)c2cnc[nH]2)c1C [Dexmedetomidine] the Kd (CYP11A1 [2]) was 7000 nM.
In the case of CC[C@@H]([C@H](C)O)n1ncn(-c2ccc(N3CCN(c4ccc(OC[C@@H]5CO[C@@](Cn6cncn6)(c6ccc(F)cc6F)C5)cc4)CC3)cc2)c1=O [Posaconazole], the Kd (CYP11A1 [1]) is reported as 1000 nM.
CC(C)CCC[C@@H](C)[C@H]1CC[C@H]2[C@@H]3CC=C4C[C@@H](O)CC[C@]4(C)[C@H]3CC[C@]12C [cholesterol] gave a Kd (CYP11A1 [3]) of 200 nM.
